T/C data for 17 compounds are collected here from PubChem BioAssay AID248 (DTP/NCI, 2004).

The assay deals with L1210 leukemia ip in BDF1 mice, survival T/C. Put plainly: NCI In Vivo Anticancer Drug Screen. Data for tumor model L1210 Leukemia (intraperitoneal) in B6D2F1 (BDF1) mice. Conditions: endpoint: mean survival time, higher = longer survival. The method, boiled down: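 Antitumor effect is assessed in tumor-bearing animals. Survival in the compound arm is compared with a vehicle-dosed control arm and expressed as their quotient.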

[1] abbreviates: dose: 100.0 mg/kg/injection, schedule: Q01DX001 (ip), vehicle: saline.
[2] abbreviates: dose: 200.0 mg/kg/injection, schedule: Q01DX001 (ip), vehicle: saline.
Where [3] appears, read: dose: 100.0 mg/kg/injection, schedule: Q04DX003 (ip), vehicle: saline with Tween-80.
Setting [4] is: dose: 200.0 mg/kg/injection, schedule: Q04DX003 (ip), vehicle: saline with Tween-80.
Where [5] appears, read: dose: 100.0 mg/kg/injection, schedule: Q04DX003 (ip), vehicle: saline.
Setting [6] is: dose: 200.0 mg/kg/injection, schedule: Q04DX003 (ip), vehicle: saline.
Setting [7] is: dose: 100.0 mg/kg/injection, schedule: Q01DX009 (ip), vehicle: saline.
The mark [8] stands for this setting: dose: 200.0 mg/kg/injection, schedule: Q01DX009 (ip), vehicle: saline.
[9] abbreviates: dose: 12.5 mg/kg/injection, schedule: Q01DX009 (ip), vehicle: Klucel (hydroxypropylcellulose) (HPC).
The mark [10] stands for this setting: dose: 50.0 mg/kg/injection, schedule: Q01DX009 (ip), vehicle: Klucel (hydroxypropylcellulose) (HPC).

Where “and” joins values, the source holds several entries; their conditions need not be identical. Equal entries are not always repeated. Inconclusive results and toxic doses are left out.

Consider `O=C1C(N2CC2)=C(N2CCCC(O)C2)C(=O)C(N2CC2)=C1N1CCCC(O)C1` (configuration not stated), for which the T/C by setting is: (dose: 0.12 mg/kg/injection, schedule: Q04DX003 (ip), vehicle: saline) 103 % of control; (dose: 0.25 mg/kg/injection, schedule: Q04DX003 (ip), vehicle: saline) 111 % of control; (dose: 0.37 mg/kg/injection, schedule: Q01DX001 (ip), vehicle: saline) 98 % of control; (dose: 0.37 mg/kg/injection, schedule: Q01DX009 (ip), vehicle: saline) 102 % of control and 103 % of control; (dose: 0.5 mg/kg/injection, schedule: Q04DX003 (ip), vehicle: saline) 123 % of control; (dose: 0.75 mg/kg/injection, schedule: Q01DX001 (ip), vehicle: saline) 108 % of control. Besides, the T/C was 96 % of control (dose: 0.75 mg/kg/injection, schedule: Q01DX009 (ip), vehicle: saline); 105 % of control (dose: 1.5 mg/kg/injection, schedule: Q01DX001 (ip), vehicle: saline); 124 % of control (dose: 1.5 mg/kg/injection, schedule: Q01DX009 (ip), vehicle: saline); 168 % of control (dose: 2.0 mg/kg/injection, schedule: Q04DX003 (ip), vehicle: saline); 102 % of control (dose: 3.0 mg/kg/injection, schedule: Q01DX001 (ip), vehicle: saline); 159 % of control (dose: 3.0 mg/kg/injection, schedule: Q01DX009 (ip), vehicle: saline). Further, the T/C runs as follows: (dose: 4.0 mg/kg/injection, schedule: Q04DX003 (ip), vehicle: saline) 156 % of control and 184 % of control; (dose: 6.0 mg/kg/injection, schedule: Q04DX003 (ip), vehicle: saline) 204 % of control.
With `O=C(CCC(C(=O)c1ccccc1)c1ccccc1)c1ccc(-c2ccccc2)cc1` (configuration not stated), the T/C (dose: 87.5 mg/kg/injection, schedule: Q01DX009 (ip), vehicle: Klucel (hydroxypropylcellulose) (HPC)) was 94 % of control.
As for `C/C(=N/OC(=O)N(C)C)c1cc(Cl)ccc1Cl`, the T/C is 100 % of control under setting [1] and 100 % of control under setting [2].
As for `CN(C)N=Nc1cn(C2CC(O)C(CO)O2)c(=O)[nH]c1=O` (configuration not stated), the T/C was 95 % of control (dose: 100.0 mg/kg/injection, schedule: Q01DX005 (ip), vehicle: saline) and 101 % of control (dose: 200.0 mg/kg/injection, schedule: Q01DX005 (ip), vehicle: saline).
On to `CC(=O)OCC1OC(Oc2c(Br)cc(Br)cc2Br)C(OC(C)=O)C(OC(C)=O)C1OC(C)=O` (configuration not stated), for which the T/C by setting is: under setting [3], 96 % of control; under setting [4], 101 % of control; (dose: 400.0 mg/kg/injection, schedule: Q04DX003 (ip), vehicle: saline with Tween-80) 95 % of control.
Consider `C/C(N)=C\C#N`, for which the T/C (dose: 50.0 mg/kg/injection, schedule: Q01DX001 (ip), vehicle: saline) is 91 % of control.
Regarding `Cc1ccc(N=Nc2ccc(N(C)C)cc2)c2cccnc12`, the T/C under setting [3] is 113 % of control and the T/C under setting [4] was 95 % of control.
For `[CH3][Sb]1([Cl])[CH2]CC[CH2]1`, the T/C is 103 % of control under setting [3], 101 % of control under setting [5], 107 % of control under setting [4] and 108 % of control under setting [6].
In the case of `Cc1cc(Cl)ccc1NC(=O)Nc1c(Oc2ccc(Cl)cc2)ccc(Cl)c1S(=O)(=O)O`, the T/C by setting is: (dose: 50.0 mg/kg/injection, schedule: Q01DX009 (ip), vehicle: saline) 104 % of control; (dose: 50.0 mg/kg/injection, schedule: Q04DX003 (ip), vehicle: saline) 95 % of control; under setting [7], 104 % of control; under setting [5], 97 % of control; under setting [8], 100 % of control; under setting [6], 103 % of control.
Take `O=[N+]([O-])c1cncn1CCN1CCOCC1`: the T/C is, setting by setting: (dose: 100.0 mg/kg/injection, schedule: Q01DX001 (ip), vehicle: carboxymethylcellulose (CMC)) 88 % of control; (dose: 200.0 mg/kg/injection, schedule: Q01DX001 (ip), vehicle: carboxymethylcellulose (CMC)) 88 % of control; (dose: 400.0 mg/kg/injection, schedule: Q01DX001 (ip), vehicle: carboxymethylcellulose (CMC)) 94 % of control.
Regarding `CN(CCC[N+](C)(C)C)C(=O)C(c1ccccc1)c1ccccc1`, the T/C under setting [5] was 100 % of control.
Turning to `CCCCN(C(=O)CCl)C(C)(C)C(SSC(c1ccc(Cl)cc1)C(C)(C)N(CCCC)C(=O)CCl)c1ccc(Cl)cc1` (configuration not stated), the T/C by setting is: under setting [9], 96 % of control; (dose: 25.0 mg/kg/injection, schedule: Q01DX009 (ip), vehicle: Klucel (hydroxypropylcellulose) (HPC)) 101 % of control; under setting [10], 96 % of control.
With `O=C1OC(c2ccc([N+](=O)[O-])cc2)Sc2ccccc21` (configuration not stated), the T/C reads like this: under setting [7], 98 % of control; under setting [5], 106 % of control; under setting [8], 94 % of control; under setting [6], 108 % of control; (dose: 400.0 mg/kg/injection, schedule: Q01DX009 (ip), vehicle: saline) 91 % of control; (dose: 400.0 mg/kg/injection, schedule: Q04DX003 (ip), vehicle: saline) 97 % of control.
Take `COC(=O)CN1C(c2ccccc2)=CS(=O)(=O)C=C1c1ccccc1`: the T/C reads like this: under setting [1], 101 % of control; under setting [2], 97 % of control; (dose: 400.0 mg/kg/injection, schedule: Q01DX001 (ip), vehicle: saline) 93 % of control.
As to `C#CC(OC(=O)NC)(c1ccccc1)c1ccc(OC)cc1` (configuration not stated), the T/C is 112 % of control (dose: 6.25 mg/kg/injection, schedule: Q01DX009 (ip), vehicle: Klucel (hydroxypropylcellulose) (HPC)); 120 % of control (dose: 11.0 mg/kg/injection, schedule: Q01DX006 (ip), vehicle: Klucel (hydroxypropylcellulose) (HPC)); 114 % of control under setting [9]; 115 % of control (dose: 25.0 mg/kg/injection, schedule: Q01DX006 (ip), vehicle: Klucel (hydroxypropylcellulose) (HPC)); 109 % of control (dose: 37.0 mg/kg/injection, schedule: Q01DX006 (ip), vehicle: Klucel (hydroxypropylcellulose) (HPC)); 119 % of control under setting [10]. Besides, the T/C (dose: 100.0 mg/kg/injection, schedule: Q04DX003 (ip), vehicle: Klucel (hydroxypropylcellulose) (HPC)) was 111 % of control.
As to `CC(C)COC(=O)C1(N)CCCC1`, the T/C was 113 % of control (dose: 30.0 mg/kg/injection, schedule: Q01DX Z (ip), vehicle: saline); 109 % of control (dose: 45.0 mg/kg/injection, schedule: Q01DX009 (ip), vehicle: saline); 121 % of control (dose: 45.0 mg/kg/injection, schedule: Q01DX Z (ip), vehicle: saline); 114 % of control (dose: 66.0 mg/kg/injection, schedule: Q01DX009 (ip), vehicle: saline); 114 % of control and 118 % of control (dose: 150.0 mg/kg/injection, schedule: Q01DX Z (ip), vehicle: saline); 120 % of control (dose: 224.0 mg/kg/injection, schedule: Q01DX Z (ip), vehicle: saline). In addition, the T/C (dose: 336.0 mg/kg/injection, schedule: Q01DX Z (ip), vehicle: saline) is 103 % of control.
For `O=C(Nc1cccc(Cl)c1)Oc1ccc(Cl)cc1Cc1ccccc1`, the T/C by setting is: (dose: 100.0 mg/kg/injection, schedule: Q01DX009 (ip), vehicle: carboxymethylcellulose (CMC)) 95 % of control and 91 % of control; (dose: 100.0 mg/kg/injection, schedule: Q04DX002 (ip), vehicle: Klucel (hydroxypropylcellulose) (HPC)) 121 % of control; (dose: 100.0 mg/kg/injection, schedule: Q04DX002 (ip), vehicle: carboxymethylcellulose (CMC)) 100 % of control; (dose: 100.0 mg/kg/injection, schedule: Q04DX003 (ip), vehicle: carboxymethylcellulose (CMC)) 94 % of control; (dose: 200.0 mg/kg/injection, schedule: Q01DX009 (ip), vehicle: carboxymethylcellulose (CMC)) 95 % of control and 97 % of control; (dose: 200.0 mg/kg/injection, schedule: Q04DX002 (ip), vehicle: Klucel (hydroxypropylcellulose) (HPC)) 102 % of control. Besides, the T/C is 97 % of control and 107 % of control (dose: 200.0 mg/kg/injection, schedule: Q04DX002 (ip), vehicle: carboxymethylcellulose (CMC)); 97 % of control (dose: 200.0 mg/kg/injection, schedule: Q04DX003 (ip), vehicle: carboxymethylcellulose (CMC)); 93 % of control and 97 % of control (dose: 400.0 mg/kg/injection, schedule: Q01DX009 (ip), vehicle: carboxymethylcellulose (CMC)); 97 % of control (dose: 400.0 mg/kg/injection, schedule: Q04DX002 (ip), vehicle: Klucel (hydroxypropylcellulose) (HPC)); 98 % of control and 100 % of control (dose: 400.0 mg/kg/injection, schedule: Q04DX002 (ip), vehicle: carboxymethylcellulose (CMC)); 94 % of control (dose: 400.0 mg/kg/injection, schedule: Q04DX003 (ip), vehicle: carboxymethylcellulose (CMC)).
